Data published in patent publication US11407783B2, “Triptolide derivative and preparation method therefor and use thereof” (priority 2018, dated 2022).
Where two headings read alike, the source gives them in different places.

Tests used:
[1] = test system: mouse T lymphocytes induced by ConA; test: In vitro immunosuppressive activity, spleen lymphocyte proliferation (3H-thymidine), ConA-induced; assay type: cell-based, BALB/c mice; conditions: read-out: IC50 (μM) mouse T lymphocytes induced by ConA
Protocol: (§1) Preparation of Mouse Spleen Lymphocyte
(§2) BALB/c mice were sacrificed by spinal dislocation, and their spleen was aseptically taken out. A single cell suspension was prepared and adjusted to the required concentration.
(§3) A suspension of 4×10^6 cells/ml spleen lymphocytes was routinely prepared and 100 μL of cells was added into each well of a 96-well plate. 50 μL test sample in different concentrations was added and ConA (final concentration 5 μg/mL) was added to induce T lymphocyte activation and proliferation, or LPS (final concentration 10 μg/mL) (50 μL) was added to induce B lymphocyte activation and proliferation. The corresponding positive control and non-stimulating background control were set. The cells were cultured in 37° C., 5% CO2 incubator for 48 h. 0.25 μCi ^3H-thymidine was introduced and the cultivation was completed after 8 h. At the end of the cultivation, the culture plate was frozen at −20° C. in a freezer until measurement. The cells were collected on a glass fiber membrane with a cell harvester and then scintillation solution was added. The amount of ^3H-thymine nucleotides incorporated into the cells' DNA was read on a Beta counter. The cell proliferation was represented by the cpm value.

[2] = test system: mouse B lymphocytes induced by LPS; test: In vitro immunosuppressive activity, spleen lymphocyte proliferation (3H-thymidine), LPS-induced; assay type: cell-based, BALB/c mice; conditions: read-out: IC50 (μM) mouse B lymphocytes induced by LPS
Protocol: as §1, §2, §3

[3] = test system: SK-OV-3 (human ovarian cancer cell); test: In vitro antitumor activity, CellTiter-Glo cell viability, 48 h; assay type: cell-based; conditions: read-out: Relative IC50 (μM) SK-OV-3
Protocol: (§4) Tumor cells included AsPC-1 (human pancreatic cancer cell), PC-3 (human prostate cancer cell), and SK-OV-3 (human ovarian cancer cell).
(§5) Triptolide was used as a positive control; the working concentrations of the test drug were 1 μM, 0.33 μM, 0.11 μM, […], 0.012 μM, 0.004 μM, 1.4 nM, and 0.46 nM. After the tumor cells were revived, they were resuspended in the corresponding complete medium, placed in 5% CO2, and cultured at 37° C. The tumor cells at the logarithmic growth stage were suspended in the corresponding complete medium to adjust the cell concentration. 90 μL of cell suspension was added into each well. The cells were incubated at 37° C. in 5% CO2 overnight. Each concentration of the test drug was added and the cells were further cultured for 48 hours. Finally. Promega CellTiter-Glo Luminescent Cell Viability Assay Kit was used for detection.

[4] = test system: PC-3 (human prostate cancer cell); test: as above; assay type: cell-based; conditions: read-out: Relative IC50 (μM) PC-3
Protocol: as §4, §5

[5] = test system: AsPC-1 (human pancreatic cancer cell); test: as above; assay type: cell-based; conditions: read-out: Relative IC50 (μM) AsPC-1
Protocol: as §4, §5

[6] = Body weight, mortality and toxicity in AsPC-1 tumor-bearing nude mice; assay type: in vivo, male nude mice; conditions: emulsions
Protocol: Human pancreatic cancer cell AsPC-1 was subcutaneously inoculated on the right abdominal side of male nude mice. Tumor-bearing mice were randomly divided into 5 groups: negative control group (Control, n=8, blank emulsion, i.p./i.v., qd); Triptolide group (Triptolide, n=8, 0.25 mg/kg, i.v., qd); positive control group (Gemcitabine, n=8, 50 mg/kg, i.p., tiw); CK21S-005 emulsion group (CK21S-005 emulsion, n=8, 5 mg/kg, i.p./i.v., qd); and CK21S-005 emulsion group (CK21S-005 emulsion, n=8, 2.5 mg/kg, i.p./i.v., qd). Mice were administered in groups until the end of the experiment. The changes in tumor size and tumor-bearing mouse weight over time were monitored during the 2-week administration period, and tumors were weighed at the end of the experiment to comprehensively evaluate the inhibitory effect of the drug CK21S-005 on tumor growth.
The preparation method of the emulsion was as follows. A prescribed amount of injection oil was weighed and heated to 70-90° C. A prescribed amount of raw material was weighed, dispersed in the oil phase and completely dissolved under shear-stirring to form an oil phase. A prescribed amount of injection water was weighed and heated to 70° C. A prescribed amount of phospholipid, co-emulsifier, glycerin, etc. were added and dispersed under shear to form an aqueous phase. […]

[7] = ConA 5 μg/mL, 48 h, 3H-thymidine
[8] = LPS 10 μg/mL, 48 h, 3H-thymidine
[9] = SK-OV-3, 48 hours, CellTiter-Glo
[10] = ASPC1, AsPC-1, 48 hours, CellTiter-Glo

| SMILES | IC50 [1, 7] | IC50 [2, 8] | IC50 [3, 9] | IC50 ([4]; PC-3, 48 hours, CellTiter-Glo) | IC50 [5, 10] | IC50 [1] | IC50 [2] | IC50 ([3]; SK-OV-3, 48 h) | IC50 ([4]; 48 h) | IC50 ([5]; ASPC1, 48 h) | Safety compared with triptolide [6] |
| --- | --- | --- | --- | --- | --- | --- | --- | --- | --- | --- | --- |
| CC(C)[C@]12O[C@H]1[C@@H]1O[C@@]13[C@@]1(C)CCC4=C(/C(=C(\OC(=O)c5ccccc5)c5ccccc5)OC4=O)[C@@H]1C[C@@H]1O[C@@]13C2F (stereo partly drawn) [CK21S-008] | 0.01 µM | 0.009 µM | 0.038 µM | 0.03 µM | 0.035 µM | – | – | – | – | – | – |
| CC(C)[C@]12O[C@H]1[C@@H]1O[C@]13[C@]1(O[C@H]1C[C@H]1C4=C(CC[C@@]13C)C(=O)O/C4=C(/OC(=O)c1ccco1)c1ccccc1)[C@@H]2O [CK21S-001] | 0.008 µM | 0.006 µM | 0.042 µM | 0.022 µM | 0.028 µM | – | – | – | – | – | – |
| CC(C)[C@]12O[C@H]1[C@@H]1O[C@]13[C@]1(O[C@H]1C[C@H]1C4=C(CC[C@@]13C)C(=O)O/C4=C(/OC(=O)C1CCCCC1)c1ccccc1)[C@@H]2O [CK21S-006] | 0.01 µM | 0.008 µM | 0.041 µM | 0.031 µM | 0.035 µM | – | – | – | – | – | – |
| CC(C)[C@]12O[C@H]1[C@@H]1O[C@]13[C@]1(O[C@H]1C[C@H]1C4=C(CC[C@@]13C)C(=O)O/C4=C(/OC(=O)c1ccc(C(F)(F)F)cc1)c1ccc(C(F)(F)F)cc1)[C@@H]2OC(=O)OC(C)(C)C [CK21S-003-b] | – | – | – | – | – | 0.006 µM | 0.005 µM | 0.029 µM | 0.021 µM | 0.02 µM | – |
| CC(C)[C@]12O[C@H]1[C@@H]1O[C@@]13[C@@]1(C)CCC4=C(/C(=C(\OC(=O)c5ccccc5)c5ccccc5)OC4=O)[C@@H]1C[C@@H]1O[C@@]13C2=O [CK21S-007] | 0.015 µM | 0.017 µM | 0.05 µM | 0.043 µM | 0.049 µM | – | – | – | – | – | – |
| CC(C)[C@]12O[C@H]1[C@@H]1O[C@]13[C@]1(O[C@H]1C[C@H]1C4=C(CC[C@@]13C)C(=O)O/C4=C(/OC(=O)c1ccco1)c1ccco1)[C@@H]2O [CK21S-004] | 0.012 µM | 0.009 µM | 0.118 µM | 0.023 µM | 0.038 µM | – | – | – | – | – | – |
| CC(C)[C@]12O[C@H]1[C@@H]1O[C@]13[C@]1(O[C@H]1C[C@H]1C4=C(CC[C@@]13C)C(=O)O/C4=C(/OC(=O)c1ccco1)c1ccco1)[C@@H]2OC(=O)OC(C)(C)C [CK21S-004-b] | – | – | – | – | – | 0.03 µM | 0.025 µM | 0.129 µM | 0.045 µM | 0.096 µM | – |
| COc1ccc(C(=O)O/C(=C2/OC(=O)C3=C2[C@@H]2C[C@@H]4O[C@@]45[C@H](OC(=O)OC(C)(C)C)[C@@]4(C(C)C)O[C@H]4[C@@H]4O[C@@]45[C@@]2(C)CC3)c2ccc(OC)cc2)cc1 [CK21S-002-b] | – | – | – | – | – | 0.012 µM | 0.01 µM | 0.057 µM | 0.042 µM | 0.042 µM | – |
| COc1ccc(C(=O)O/C(=C2/OC(=O)C3=C2[C@@H]2C[C@@H]4O[C@@]45[C@H](O)[C@@]4(C(C)C)O[C@H]4[C@@H]4O[C@@]45[C@@]2(C)CC3)c2ccc(OC)cc2)cc1 [CK21S-002] | 0.021 µM | 0.02 µM | 0.07 µM | 0.056 µM | 0.071 µM | – | – | – | – | – | – |
| CC(C)[C@]12O[C@H]1[C@@H]1O[C@]13[C@]1(O[C@H]1C[C@H]1C4=C(CC[C@@]13C)C(=O)OC4)[C@@H]2O [Triptolide, triptolide] | 0.005 µM | 0.004 µM | 0.016 µM | 0.014 µM | 0.014 µM | – | – | – | – | – | – |
| CC(C)[C@]12O[C@H]1[C@@H]1O[C@]13[C@]1(O[C@H]1C[C@H]1C4=C(CC[C@@]13C)C(=O)O/C4=C(/OC(=O)c1ccccc1)c1ccccc1)[C@@H]2OC(=O)OC(C)(C)C [CK21S-005-b] | 0.011 µM | 0.009 µM | 0.04 µM | 0.035 µM | 0.042 µM | – | – | – | – | – | – |
| CC(C)[C@]12O[C@H]1[C@@H]1O[C@]13[C@]1(O[C@H]1C[C@H]1C4=C(CC[C@@]13C)C(=O)O/C4=C(/OC(=O)c1ccc(C(F)(F)F)cc1)c1ccc(C(F)(F)F)cc1)[C@@H]2O [CK21S-003] | 0.006 µM | 0.004 µM | 0.028 µM | 0.018 µM | 0.014 µM | – | – | – | – | – | – |
| CC(C)[C@]12O[C@H]1[C@@H]1O[C@]13[C@]1(O[C@H]1C[C@H]1C4=C(CC[C@@]13C)C(=O)O/C4=C(/OC(=O)c1ccccc1)c1ccccc1)[C@@H]2OCOP(=O)(O)O [CK21S-009] | 0.008 µM | 0.008 µM | 0.032 µM | 0.027 µM | 0.03 µM | – | – | – | – | – | – |
| CC(C)[C@]12O[C@H]1[C@@H]1O[C@]13[C@]1(O[C@H]1C[C@H]1C4=C(CC[C@@]13C)C(=O)O/C4=C(/OC(=O)c1ccco1)c1ccccc1)[C@@H]2OC(=O)OC(C)(C)C [CK21S-001-b] | – | – | – | – | – | 0.011 µM | 0.01 µM | 0.048 µM | 0.029 µM | 0.03 µM | – |
| CC(C)[C@]12O[C@H]1[C@@H]1O[C@]13[C@]1(O[C@H]1C[C@H]1C4=C(CC[C@@]13C)C(=O)O/C4=C(/OC(=O)c1ccccc1)c1ccccc1)[C@@H]2O [CK21S-005] | – | – | – | – | – | 0.012 µM | 0.01 µM | 0.041 µM | 0.03 µM | 0.04 µM | better than that of triptolide |
| CC(C)[C@]12O[C@H]1[C@@H]1O[C@]13[C@]1(O[C@H]1C[C@H]1C4=C(CC[C@@]13C)C(=O)O/C4=C(/OC(=O)C1CCCCC1)c1ccccc1)[C@@H]2OC(=O)OC(C)(C)C [CK21S-006-b] | – | – | – | – | – | 0.016 µM | 0.015 µM | 0.045 µM | 0.034 µM | 0.036 µM | – |
